Measurements: ChEMBL document CHEMBL4420079, “Methylamine derivatives as lysysl oxidase inhibitors for the treatment of cancer” (2017)
Active and inactive are the calls of the source. The calls are words filed in the database; no cut-off is given here.

What was measured:
[1] = Inhibition of pig skin LOX incubated for 45 mins by Amplex red dye based and HRP coupled assay; design: species or system Sus scrofa
[2] = target: T1, Protein-lysine 6-oxidase (Homo sapiens) (UniProt P28300); conditions: MDA-MB-231, 1 mM
T1 sequence (whole entry): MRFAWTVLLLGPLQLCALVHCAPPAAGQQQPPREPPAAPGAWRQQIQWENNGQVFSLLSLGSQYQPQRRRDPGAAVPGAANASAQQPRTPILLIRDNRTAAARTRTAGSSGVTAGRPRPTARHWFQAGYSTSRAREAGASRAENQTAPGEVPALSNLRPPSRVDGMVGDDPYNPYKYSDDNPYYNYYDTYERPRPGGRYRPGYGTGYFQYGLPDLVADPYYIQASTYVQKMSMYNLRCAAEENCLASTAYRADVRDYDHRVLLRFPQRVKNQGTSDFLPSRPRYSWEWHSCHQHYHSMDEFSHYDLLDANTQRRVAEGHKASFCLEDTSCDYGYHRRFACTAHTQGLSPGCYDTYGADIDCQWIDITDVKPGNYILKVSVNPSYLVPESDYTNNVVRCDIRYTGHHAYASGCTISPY

IC50 [1] [µM] | SMILES | inhibition [2]
1.4 | NCc1ncc(S(=O)(=O)c2ccc3ccccc3c2)s1 | –
– | N#CCCN | Active
